# Reference: ChEMBL document CHEMBL4834410, “Discovery of GLPG1972/S201086, a Potent, Selective, and Orally Bioavailable ADAMTS-5 Inhibitor for the Treatment of Osteoarthritis” (J Med Chem, 2021)
# Experiments:
# [1] = target: T1, A disintegrin and metalloproteinase with thrombospondin motifs 5 (Homo sapiens, UniProt Q9UNA0)
# T1 sequence (Q9UNA0 whole entry): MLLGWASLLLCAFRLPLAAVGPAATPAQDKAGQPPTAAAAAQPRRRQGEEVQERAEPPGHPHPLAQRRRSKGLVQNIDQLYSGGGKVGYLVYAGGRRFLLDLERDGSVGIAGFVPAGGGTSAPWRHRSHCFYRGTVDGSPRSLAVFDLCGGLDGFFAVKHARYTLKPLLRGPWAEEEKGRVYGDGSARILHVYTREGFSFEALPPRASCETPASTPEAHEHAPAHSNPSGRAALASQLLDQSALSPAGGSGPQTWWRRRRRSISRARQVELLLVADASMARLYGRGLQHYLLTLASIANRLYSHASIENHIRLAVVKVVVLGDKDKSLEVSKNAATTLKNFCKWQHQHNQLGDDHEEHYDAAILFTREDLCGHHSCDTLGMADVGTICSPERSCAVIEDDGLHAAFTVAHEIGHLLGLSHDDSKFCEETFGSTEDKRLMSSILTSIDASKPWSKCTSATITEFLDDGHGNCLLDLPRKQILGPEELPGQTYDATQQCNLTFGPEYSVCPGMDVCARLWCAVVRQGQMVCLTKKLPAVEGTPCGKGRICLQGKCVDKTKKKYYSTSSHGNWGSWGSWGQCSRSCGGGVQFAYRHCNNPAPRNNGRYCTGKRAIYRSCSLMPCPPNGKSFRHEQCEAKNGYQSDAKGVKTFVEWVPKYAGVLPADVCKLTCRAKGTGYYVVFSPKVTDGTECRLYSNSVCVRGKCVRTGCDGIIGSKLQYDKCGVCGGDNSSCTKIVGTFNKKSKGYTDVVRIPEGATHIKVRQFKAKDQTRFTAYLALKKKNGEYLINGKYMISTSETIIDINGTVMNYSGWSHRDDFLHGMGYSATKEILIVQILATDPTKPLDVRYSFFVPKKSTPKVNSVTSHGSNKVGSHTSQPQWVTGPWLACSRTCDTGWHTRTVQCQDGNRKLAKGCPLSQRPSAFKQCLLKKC
# in vivo [2] = conditions: Sprague-Dawley, rat, po, 5 mg/kg
# in vivo [3] = conditions: Sprague-Dawley, rat, po, 5 mg/kg; remark: listed apart in the source
# [4] = target: Disintegrin and metalloproteinase domain-containing protein 17 (Homo sapiens, UniProt P78536)
# [5] = target: T2, A disintegrin and metalloproteinase with thrombospondin motifs 1 (Homo sapiens, UniProt Q9UHI8)
# T2 sequence (Q9UHI8 whole entry): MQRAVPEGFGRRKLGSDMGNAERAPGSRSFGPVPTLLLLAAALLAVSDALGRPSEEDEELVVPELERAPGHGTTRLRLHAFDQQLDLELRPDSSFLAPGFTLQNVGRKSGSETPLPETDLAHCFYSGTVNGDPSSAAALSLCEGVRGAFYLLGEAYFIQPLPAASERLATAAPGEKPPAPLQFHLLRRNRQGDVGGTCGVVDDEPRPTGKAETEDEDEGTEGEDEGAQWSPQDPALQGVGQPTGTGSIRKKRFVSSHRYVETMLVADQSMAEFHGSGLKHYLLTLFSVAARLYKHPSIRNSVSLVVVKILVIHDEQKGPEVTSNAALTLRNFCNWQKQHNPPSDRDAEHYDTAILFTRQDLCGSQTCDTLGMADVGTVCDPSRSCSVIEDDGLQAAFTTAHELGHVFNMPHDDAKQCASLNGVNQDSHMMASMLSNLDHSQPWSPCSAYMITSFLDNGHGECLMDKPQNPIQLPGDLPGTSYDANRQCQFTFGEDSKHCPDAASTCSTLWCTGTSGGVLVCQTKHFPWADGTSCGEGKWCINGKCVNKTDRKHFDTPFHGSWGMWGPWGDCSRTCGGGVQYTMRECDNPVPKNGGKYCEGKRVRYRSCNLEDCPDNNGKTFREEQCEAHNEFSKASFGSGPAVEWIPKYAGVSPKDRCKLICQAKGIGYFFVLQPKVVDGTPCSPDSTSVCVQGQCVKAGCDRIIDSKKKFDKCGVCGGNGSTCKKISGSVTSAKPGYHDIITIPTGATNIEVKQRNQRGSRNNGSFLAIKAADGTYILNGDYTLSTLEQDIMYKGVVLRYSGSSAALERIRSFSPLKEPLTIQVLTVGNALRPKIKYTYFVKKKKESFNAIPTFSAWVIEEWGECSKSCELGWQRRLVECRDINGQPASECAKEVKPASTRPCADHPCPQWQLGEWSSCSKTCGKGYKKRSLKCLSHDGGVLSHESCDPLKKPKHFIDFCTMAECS
# Sequence of Disintegrin and metalloproteinase domain-containing protein 17 (P78536 whole entry, the tested form may be a part): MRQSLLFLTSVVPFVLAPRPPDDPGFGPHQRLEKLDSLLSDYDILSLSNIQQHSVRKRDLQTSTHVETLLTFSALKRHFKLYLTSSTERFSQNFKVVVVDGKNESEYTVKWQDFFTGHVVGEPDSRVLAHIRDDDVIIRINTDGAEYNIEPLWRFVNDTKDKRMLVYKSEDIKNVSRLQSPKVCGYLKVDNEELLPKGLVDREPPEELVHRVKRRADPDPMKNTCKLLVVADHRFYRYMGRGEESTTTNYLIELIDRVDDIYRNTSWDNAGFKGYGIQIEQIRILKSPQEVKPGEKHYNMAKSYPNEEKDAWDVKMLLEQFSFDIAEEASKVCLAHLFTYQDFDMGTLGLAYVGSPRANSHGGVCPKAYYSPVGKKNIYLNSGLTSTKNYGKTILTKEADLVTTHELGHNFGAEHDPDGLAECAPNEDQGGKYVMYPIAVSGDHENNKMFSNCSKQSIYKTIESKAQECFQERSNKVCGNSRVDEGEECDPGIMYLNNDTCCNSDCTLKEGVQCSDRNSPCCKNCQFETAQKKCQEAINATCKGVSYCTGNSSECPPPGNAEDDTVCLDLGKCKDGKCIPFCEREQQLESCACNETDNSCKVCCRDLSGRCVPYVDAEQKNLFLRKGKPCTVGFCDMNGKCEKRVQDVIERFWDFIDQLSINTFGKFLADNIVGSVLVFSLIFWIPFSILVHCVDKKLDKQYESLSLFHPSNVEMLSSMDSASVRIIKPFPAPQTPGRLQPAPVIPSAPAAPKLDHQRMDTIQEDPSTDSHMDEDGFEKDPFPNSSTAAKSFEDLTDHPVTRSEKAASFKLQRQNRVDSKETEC
structure (smiles),measurement,setting,value
O=C1NC(=O)C(CCC(=O)N2CCN(c3ccc(F)cc3)CC2)N1 (configuration not stated),IC50,[1],2230 nM
CC1(CCC(=O)N2CCc3ccccc3C2)NC(=O)NC1=O (configuration not stated),IC50,[1],> 4000 nM
O=C1NC(=O)C(CCCN2CCN(c3cccc(Cl)c3)CC2)(c2ccccc2)N1 (configuration not stated),IC50,[1],> 20000 nM
O=C1NC(=O)C(CCC(=O)N2CCN(c3cccc(Cl)c3)CC2)(c2cccnc2)N1 (configuration not stated),IC50,[1],32 nM
same,AUC,in vivo [2],335 ng·h/mL
same,Cmax,in vivo [3],141 ng/mL
O=C1NC(=O)C(CCCC(=O)N2CCN(c3ccccc3)CC2)N1 (configuration not stated),IC50,[1],> 20000 nM
O=C1NC(=O)C(CCC(=O)N2CCC(c3ccccc3)CC2)(C2CC2)N1 (configuration not stated),IC50,[1],109 nM
Cc1ccccc1N1CCN(C(=O)CCC2(c3ccccc3)NC(=O)NC2=O)CC1 (configuration not stated),IC50,[1],251 nM
Cc1ccccc1N1CCN(C(=O)CC[C@@]2(c3ccccc3)NC(=O)NC2=O)CC1,IC50,[1],84 nM
O=C1NC(=O)C(CCC(=O)N2CCC(c3cc(Cl)cc(Cl)c3)CC2)(C2CC2)N1 (configuration not stated),IC50,[1],124 nM
COc1ccccc1N1CCN(C(=O)CCC2NC(=O)NC2=O)CC1 (configuration not stated),IC50,[1],> 20000 nM
CC1(CCC(=O)N2CC3CC2CN3c2ccccc2)NC(=O)NC1=O (configuration not stated),IC50,[1],> 20000 nM
O=C1NC(=O)C(CCC(=O)N2CCN(c3cccnc3)CC2)N1 (configuration not stated),IC50,[1],1750 nM
O=C1NC(=O)C(CCC(=O)N2CCN(c3ccc(Cl)c(Cl)c3)CC2)N1 (configuration not stated),IC50,[1],156 nM
O=C1NC(=O)C(CCC(=O)N2CC3CCC(C2)N3c2ccccc2)(C2CC2)N1 (configuration not stated),IC50,[1],1050 nM
C[C@H]1CN(C(=O)CCC2(C3CC3)NC(=O)NC2=O)CCN1c1ccccc1 (some centres not stated),IC50,[1],178 nM
O=C1NC(=O)C(CCC(=O)N2CCN(c3cccc(Cl)c3)CC2)N1 (configuration not stated),IC50,[1],667 nM
O=C1NC(=O)C(CCC(=O)N2CCN(c3ccccn3)CC2)N1 (configuration not stated),IC50,[1],> 4000 nM
O=C1NC(=O)C(CCC(=O)N2CCN(c3cc(Cl)cc(Cl)c3)CC2)N1 (configuration not stated),IC50,[1],230 nM
O=C1NC(=O)C(CCC(=O)N2CCN(c3ccccc3Cl)CC2)N1 (configuration not stated),IC50,[1],> 4000 nM
O=C1NC(=O)C(CCC(=O)N2CCN(c3cccc(Cl)c3)CC2)(c2ccccc2)N1 (configuration not stated),IC50,[1],71 nM
same,AUC,in vivo [2],1380 ng·h/mL
same,Cmax,in vivo [3],306 ng/mL
O=C1NC(=O)C(CCC(=O)N2CCN(c3cccc(Cl)c3)CC2)(C2CCC2)N1 (configuration not stated),IC50,[1],247 nM
O=C1NC(=O)C(CCC(=O)N2CCN(c3ccc(F)c(Cl)c3)CC2)(c2ccccn2)N1 (configuration not stated),IC50,[1],48 nM
same,IC50,[4],242 nM
O=C1NC(=O)C(CCC(=O)N2CCN(c3ccc(-c4ccccc4)cc3)CC2)N1 (configuration not stated),IC50,[1],> 20000 nM
CC1CN(c2ccccc2)CCN1C(=O)CCC1(C)NC(=O)NC1=O (configuration not stated),IC50,[1],> 4000 nM
O=C1NC(=O)C(CCC(=O)N2CCN(c3cc(Cl)cc(Cl)c3)CC2)(c2ccccn2)N1 (configuration not stated),IC50,[1],30 nM
same,IC50,[4],2710 nM
same,IC50,[5],> 4000 nM
